{"source": "patent US11078170B2", "about": "(Assembly Biosciences, Inc., priority 2017, dated 2021)", "note": "pEC50: −log10 of the molar value.", "data": [{"system": "HBV viral production from HepAD38 cells", "assay": "Activity of test compounds on viral production from HepAD38 cells (viral load by qPCR of HBV core sequence in supernatant)", "format": "cell-based", "settings": "Hepatitis B virus, 120 h, 5 days incubation, HBV DNA in supernatant by qPCR, top concentration 10 μM, read-out: Viral Load EC50 Activity range", "in_short": "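EC50 and CC50 come from four-parameter fits of supernatant viral load and CellTiter-Glo viability, respectively. Viral load was measured by core-region TaqMan qPCR against HBV DNA standards and compared with DMSO controls. Tet-free HepAD38 cells (50,000/well, 2% FBS) were exposed to compound, highest 10 μM, for 5 days at 37° C.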", "values": [{"smiles": "Cc1nn(C)c(C)c1-c1ccc([C@@H]2C[C@H](C(=O)Nc3ccc(F)c(Cl)c3)N(C)S(=O)(=O)N2)s1", "note": "[HBV-CSU-314-ISO-II, Cis-N-(3-chloro-4-fluorophenyl)-2-methyl-5-(5-(1,3,5-trimethyl-1H-pyrazol-4-yl)thiophen-2-yl)-1,2,6-thiadiazinane-3-carboxamide 1,1-dioxide]", "pEC50": "5.30 to 6.00"}, {"smiles": "O=C(Nc1ccc(F)c(Cl)c1)[C@H]1C[C@@H](c2nccs2)NS(=O)(=O)N1CCOCc1ccccc1", "note": "(relative stereo) [HBV-CSU-095-ISO-I, Cis-2-(2-(benzyloxy)ethyl)-N-(3-chloro-4-fluorophenyl)-5-(thiazol-2-yl)-1,2,6-thiadiazinane-3-carboxamide 1,1-dioxide]", "pEC50": "5.30 to 6.00"}, {"smiles": "[2H]C1[C@]([2H])(c2ccc(-c3cnn(C([2H])([2H])[2H])c3)s2)NS(=O)(=O)N(C([2H])([2H])[2H])[C@]1([2H])C(=O)Nc1ccc(F)c(Cl)c1", "note": "(stereo in doubt) [HBV-CSU-379-ISO-I, Cis-N-(3-Chloro-4-fluorophenyl)-2-(methyl-d3)-5-(5-(1-(methyl-d3)-1H-pyrazol-4-yl)thiophen-2-yl)-1,2,6-thiadiazinane-3,4,5-d3-3-carboxamide 1,1-dioxide]", "pEC50": "> 6.00"}, {"smiles": "CN1[C@H](C(=O)Nc2ccc(F)c(Cl)c2)C[C@H](c2ncc(-c3ccc(NS(C)(=O)=O)cc3)s2)NS1(=O)=O", "note": "[HBV-CSU-179-ISO-I, Cis-N-(3-Chloro-4-fluorophenyl)-2-methyl-5-(5-(4-(methylsulfonamido)phenyl)thiazol-2-yl)-1,2,6-thiadiazinane-3-carboxamide 1,1-dioxide]", "pEC50": "> 6.00"}, {"smiles": "O=C(Nc1ccc(F)c(Cl)c1)C1CC(c2nccs2)NS(=O)(=O)N1CCN1CCOCC1", "note": "(racemic) [HBV-CSU-082, Cis-N-(3-Chloro-4-fluorophenyl)-2-(2-morpholinoethyl)-5-(thiazol-2-yl)-1,2,6-thiadiazinane-3-carboxamide 1,1-dioxide]", "pEC50": "< 5.30"}, {"smiles": "CN1[C@@H](C(=O)Nc2ccc(F)c(Cl)c2)C[C@@H](c2cc(-c3ccnn3C)cs2)NS1(=O)=O", "note": "[HBV-CSU-289-ISO-II, Cis-N-(3-chloro-4-fluorophenyl)-2-methyl-5-(4-(1-methyl-1H-pyrazol-5-yl)thiophen-2-yl)-1,2,6-thiadiazinane-3-carboxamide 1,1-dioxide]", "pEC50": "5.30 to 6.00"}, {"smiles": "[2H]C1[C@]([2H])(c2ncc(-c3cn(C([2H])([2H])[2H])cn3)s2)NS(=O)(=O)N(C([2H])([2H])[2H])[C@]1([2H])C(=O)Nc1ccc(F)c(Cl)c1", "note": "(stereo in doubt) [HBV-CSU-339-ISO-I, Cis-N-(3-Chloro-4-fluorophenyl)-2-(methyl-d3)-5-(5-(1-(methyl-d3)-1H-imidazol-4-yl)thiazol-2-yl)-1,2,6-thiadiazinane-3,4,5-d3-3-carboxamide 1,1-dioxide]", "pEC50": "> 6.00"}, {"smiles": "CN1[C@@H](C(=O)Nc2ccc(F)c(Cl)c2)C[C@@H](c2ncc(-c3cncs3)s2)NS1(=O)=O", "note": "[HBV-CSU-278-ISO-II, Cis-5-([5,5′-Bithiazol]-2-yl)-N-(3-chloro-4-fluorophenyl)-2-methyl-1,2,6-thiadiazinane-3-carboxamide 1,1-dioxide]", "pEC50": "< 5.30"}, {"smiles": "C[C@@H]1C[C@H](C(=O)Nc2ccc(F)c(Cl)c2)N(C)S(=O)(=O)N1", "note": "[HBV-CSU-050-ISO-II, Cis-N-(3-chloro-4-fluorophenyl)-2,5-dimethyl-1,2,6-thiadiazinane-3-carboxamide 1,1-dioxide]", "pEC50": "< 5.30"}, {"smiles": "CN1[C@H](C(=O)Nc2ccc(F)c(Cl)c2)C[C@H](c2ncc(-c3ccnn3C)s2)NS1(=O)=O", "note": "[HBV-CSU-281-ISO-I, Cis-N-(3-Chloro-4-fluorophenyl)-2-methyl-5-(5-(1-methyl-1H-pyrazol-5-yl)thiazol-2-yl)-1,2,6-thiadiazinane-3-carboxamide 1,1-dioxide]", "pEC50": "> 6.00"}, {"smiles": "CN1C(C(=O)Nc2ccc(F)c(Cl)c2)CC(c2ncc(-c3ccnn3C)s2)NS1(=O)=O", "note": "(racemic) [HBV-CSU-281, Cis-N-(3-Chloro-4-fluorophenyl)-2-methyl-5-(5-(1-methyl-1H-pyrazol-5-yl)thiazol-2-yl)-1,2,6-thiadiazinane-3-carboxamide 1,1-dioxide]", "pEC50": "> 6.00"}, {"smiles": "[2H]C([2H])([2H])N1C(C(=O)Nc2ccc(F)c(Cl)c2)CC(c2ncc(Br)s2)NS1(=O)=O", "note": "(centres unmarked) [HBV-CSU-336, 5-(5-Bromothiazol-2-yl)-N-(3-chloro-4-fluorophenyl)-2-(methyl-d3)-1,2,6-thiadiazinane-3-carboxamide 1,1-dioxide]", "pEC50": "> 6.00"}, {"smiles": "COc1ccc(-c2ccc([C@H]3C[C@@H](C(=O)Nc4ccc(F)c(Cl)c4)N(C)S(=O)(=O)N3)s2)cc1", "note": "[HBV-CSU-240-ISO-I]", "pEC50": "> 6.00"}, {"smiles": "CN1[C@@H](C(=O)Nc2ccc(F)c(Cl)c2)C[C@@H](c2ccc(-c3cn[nH]c3)s2)NS1(=O)=O", "note": "[HBV-CSU-244-ISO-II]", "pEC50": "> 6.00"}, {"smiles": "O=C(Nc1ccc(F)c(Cl)c1)[C@H]1C[C@@H](c2nccs2)NS(=O)(=O)N1CCCN1CCOCC1", "note": "[HBV-CSU-103-ISO-I]", "pEC50": "< 5.30"}, {"smiles": "CN1[C@H](C(=O)Nc2ccc(F)c(Cl)c2)C[C@H](c2ccc(OCC(=O)O)cc2)NS1(=O)=O", "note": "(relative stereo) [HBV-CSU-216-ISO-I, Cis-2-(4-(5-((3-Chloro-4-fluorophenyl)carbamoyl)-6-methyl-1,1-dioxido-1,2,6-thiadiazinan-3-yl)phenoxy)acetic acid]", "pEC50": "5.30 to 6.00"}, {"smiles": "CN1[C@H](C(=O)Nc2ccc(F)c(Cl)c2)C[C@H](c2ncc(-c3cnn(C)c3)s2)NS1(=O)=O", "note": "[HBV-CSU-177-ISO-I, Cis-N-(3-Chloro-4-fluorophenyl)-2-methyl-5-(5-(1-methyl-1H-pyrazol-4-yl)thiazol-2-yl)-1,2,6-thiadiazinane-3-carboxamide 1,1-dioxide]", "pEC50": "> 6.00"}, {"smiles": "CN1C(C(=O)Nc2ccc(F)c(Cl)c2)CC(c2cccc(O)c2)NS1(=O)=O", "note": "(stereo not drawn) [HBV-CSU-205, Cis-N-(3-chloro-4-fluorophenyl)-5-(3-hydroxyphenyl)-2-methyl-1,2,6-thiadiazinane-3-carboxamide 1,1-dioxide]", "pEC50": "> 6.00"}, {"smiles": "CN1[C@H](C(=O)Nc2ccc(F)c(Cl)c2)C[C@H](c2cc(Br)cs2)NS1(=O)=O", "note": "[HBV-CSU-146-ISO-I, 5-(4-Bromothiophen-2-yl)-N-(3-chloro-4-fluorophenyl)-2-methyl-1,2,6-thiadiazinane-3-carboxamide 1,1-dioxide]", "pEC50": "> 6.00"}, {"smiles": "CN1[C@H](C(=O)Nc2ccc(F)c(Cl)c2)C[C@H](c2ncc(-c3cn[nH]c3)s2)NS1(=O)=O", "note": "[HBV-CSU-254-ISO-I, Cis-5-(5-(1H-pyrazol-4-yl)thiazol-2-yl)-N-(3-chloro-4-fluorophenyl)-2-methyl-1,2,6-thiadiazinane-3-carboxamide 1,1-dioxide]", "pEC50": "> 6.00"}, {"smiles": "CN1C(C(=O)Nc2ccc(F)c(Cl)c2)CC(c2ccccn2)NS1(=O)=O", "note": "(racemic) [HBV-CSU-031, Cis-N-(3-Chloro-4-fluorophenyl)-2-methyl-5-(pyridin-2-yl)-1,2,6-thiadiazinane-3-carboxamide 1,1-dioxide]", "pEC50": "> 6.00"}, {"smiles": "[2H]C1[C@]([2H])(c2ccc(-c3cn(C)cn3)s2)NS(=O)(=O)N(C)[C@]1([2H])C(=O)Nc1ccc(F)c(Cl)c1", "note": "(stereo in doubt) [HBV-CSU-375-ISO-I, Cis-N-(3-Chloro-4-fluorophenyl)-2-methyl-5-(5-(1-methyl-1H-imidazol-4-yl)thiophen-2-yl)-1,2,6-thiadiazinane-3,4,5-d3-3-carboxamide 1,1-dioxide]", "pEC50": "> 6.00"}, {"smiles": "[2H]C([2H])([2H])N1[C@@H](C(=O)Nc2ccc(F)c(Cl)c2)C[C@@H](c2ccc(-c3cn(C([2H])([2H])[2H])cn3)s2)NS1(=O)=O", "note": "(stereo in doubt) [HBV-CSU-374-ISO-II, Cis-N-(3-Chloro-4-fluorophenyl)-2-(methyl-d3)-5-(5-(1-(methyl-d3)-1H-imidazol-4-yl)thiophen-2-yl)-1,2,6-thiadiazinane-3-carboxamide 1,1-dioxide]", "pEC50": "> 6.00"}, {"smiles": "CN1C(C(=O)Nc2ccc(F)c(Cl)c2)CC(c2ccc(OC(F)(F)F)cc2)NS1(=O)=O", "note": "(racemic) [HBV-CSU-232, Cis-N-(3-Chloro-4-fluorophenyl)-2-methyl-5-(4-(trifluoromethoxy)phenyl)-1,2,6-thiadiazinane-3-carboxamide 1,1-dioxide]", "pEC50": "> 6.00"}, {"smiles": "CN1[C@H](C(=O)Nc2ccc(F)c(Cl)c2)C[C@H](c2cc(-c3ccn(C)n3)cs2)NS1(=O)=O", "note": "[HBV-CSU-288-ISO-I, Cis-N-(3-Chloro-4-fluorophenyl)-2-methyl-5-(4-(1-methyl-1H-pyrazol-3-yl)thiophen-2-yl)-1,2,6-thiadiazinane-3-carboxamide 1,1-dioxide]", "pEC50": "> 6.00"}, {"smiles": "CN1[C@@H](C(=O)Nc2ccc(F)c(Cl)c2)C[C@@H](c2ccc(-c3ccc(F)cn3)s2)NS1(=O)=O", "note": "[HBV-CSU-242-ISO-II, Cis-N-(3-chloro-4-fluorophenyl)-5-(5-(5-fluoropyridin-2-yl)thiophen-2-yl)-2-methyl-1,2,6-thiadiazinane-3-carboxamide 1,1-dioxide]", "pEC50": "< 5.30"}, {"smiles": "CN1C(C(=O)Nc2ccc(F)c(Cl)c2)CC(c2cccc(OC(F)F)c2)NS1(=O)=O", "note": "(racemic) [HBV-CSU-264, Cis-N-(3-chloro-4-fluorophenyl)-5-(3-(difluoromethoxy)phenyl)-2-methyl-1,2,6-thiadiazinane-3-carboxamide 1,1-dioxide]", "pEC50": "> 6.00"}, {"smiles": "CN1[C@H](C(=O)Nc2ccc(F)c(Cl)c2)C[C@H](c2cc(-c3cncn3C)cs2)NS1(=O)=O", "note": "[HBV-CSU-285-ISO-I, Cis-N-(3-Chloro-4-fluorophenyl)-2-methyl-5-(4-(1-methyl-1H-imidazol-5-yl)thiophen-2-yl)-1,2,6-thiadiazinane-3-carboxamide 1,1-dioxide]", "pEC50": "> 6.00"}, {"smiles": "CN1C(C(=O)Nc2ccc(F)c(Cl)c2)CC(c2cc(-c3ccccn3)cs2)NS1(=O)=O", "note": "(racemic) [HBV-CSU-168, Cis-N-(3-chloro-4-fluorophenyl)-2-methyl-5-(4-(pyridin-2-yl)thiophen-2-yl)-1,2,6-thiadiazinane-3-carboxamide 1,1-dioxide]", "pEC50": "> 6.00"}]}]}
